Measured values as given in ChEMBL document CHEMBL1201862, “PubChem BioAssay data set” (2004).
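Tested at 5 concentrations; 48 h exposure; 96-well plates; endpoints linearly interpolated, else capped at highest concentration. Abbreviation: GI50, concentration required for 50% inhibition of growth.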 Active and inactive are the calls of the source. No stated cut-off is given here; in the data, active = GI50 up to about 1.1 µM and inactive = higher.

Columns and labels:
Test in all cases: growth of human tumour cells (NCI), 48 h
786-0 = test system: 786-0
A549 = test system: A549
ACHN = test system: ACHN
BT-549 = test system: BT-549
CAKI-1 = test system: CAKI-1
CCRF-CEM = test system: CCRF-CEM
COLO 205 = test system: COLO 205
DU-145 = test system: DU-145
EKVX = test system: EKVX
HCC 2998 = test system: HCC 2998
HCT-116 = test system: HCT-116
HCT-15 = test system: HCT-15
HL-60 = test system: HL-60
HOP-62 = test system: HOP-62
HOP-92 = test system: HOP-92
HT-29 = test system: HT-29
Hs-578T = test system: Hs-578T
IGROV-1 = test system: IGROV-1
K562 = test system: K562
KM12 = test system: KM12
LOX IMVI = test system: LOX IMVI
M14 = test system: M14
MCF7 = test system: MCF7
MDA-MB-231 = test system: MDA-MB-231
MDA-MB-435 = test system: MDA-MB-435
MDA-N = test system: MDA-N
MOLT-4 = test system: MOLT-4
Malme-3M = test system: Malme-3M
NCI-H226 = test system: NCI-H226
NCI-H23 = test system: NCI-H23
NCI-H460 = test system: NCI-H460
NCI/ADR-RES = test system: NCI/ADR-RES
OVCAR-3 = test system: OVCAR-3
OVCAR-4 = test system: OVCAR-4
OVCAR-5 = test system: OVCAR-5
OVCAR-8 = test system: OVCAR-8
PC-3 = test system: PC-3
RPMI-8226 = test system: RPMI-8226
RXF 393 = test system: RXF 393
SF-268 = test system: SF-268
SF-295 = test system: SF-295
SF-539 = test system: SF-539
SK-MEL-28 = test system: SK-MEL-28
SK-MEL-2 = test system: SK-MEL-2
SK-MEL-5 = test system: SK-MEL-5
SK-OV-3 = test system: SK-OV-3
SN12C = test system: SN12C
SNB-19 = test system: SNB-19
SNB-75 = test system: SNB-75
SR = test system: SR
SW-620 = test system: SW-620
T47D = test system: T47D
TK-10 = test system: TK-10
U-251 = test system: U-251
UACC-257 = test system: UACC-257
UACC-62 = test system: UACC-62
UO-31 = test system: UO-31
NCI-H522 = test system: NCI-H522

SMILES: COc1ccc(/C=C2\CCc3cc(OC)c(OC)cc3C2=O)cc1
- GI50 (786-0): > 10 µM (inactive)
- GI50 (A549): > 10 µM (inactive)
- GI50 (ACHN): > 10 µM (inactive)
- GI50 (BT-549): > 10 µM (inactive)
- GI50 (CAKI-1): > 10 µM (inactive)
- GI50 (CCRF-CEM): > 10 µM (inactive)
- GI50 (COLO 205): > 10 µM (inactive)
- GI50 (DU-145): > 10 µM (inactive)
- GI50 (EKVX): > 10 µM (inactive)
- GI50 (HCC 2998): > 10 µM (inactive)
- GI50 (HCT-116): > 10 µM (inactive)
- GI50 (HCT-15): > 10 µM
- GI50 (HL-60): 9.25 µM (inactive)
- GI50 (HOP-62): > 10 µM (inactive)
- GI50 (HOP-92): > 10 µM (inactive)
- GI50 (HT-29): > 10 µM (inactive)
- GI50 (Hs-578T): > 10 µM (inactive)
- GI50 (IGROV-1): > 10 µM (inactive)
- GI50 (K562): > 10 µM (inactive)
- GI50 (KM12): > 10 µM (inactive)
- GI50 (LOX IMVI): > 10 µM (inactive)
- GI50 (M14): > 10 µM (inactive)
- GI50 (MCF7): > 10 µM (inactive)
- GI50 (MDA-MB-231): > 10 µM (inactive)
- GI50 (MDA-MB-435): > 10 µM (inactive)
- GI50 (MDA-N): > 10 µM (inactive)
- GI50 (MOLT-4): > 10 µM (inactive)
- GI50 (Malme-3M): > 10 µM (inactive)
- GI50 (NCI-H226): > 10 µM (inactive)
- GI50 (NCI-H23): > 10 µM (inactive)
- GI50 (NCI-H460): > 10 µM (inactive)
- GI50 (NCI/ADR-RES): > 10 µM (inactive)
- GI50 (OVCAR-3): > 10 µM (inactive)
- GI50 (OVCAR-4): > 10 µM (inactive)
- GI50 (OVCAR-5): > 10 µM (inactive)
- GI50 (OVCAR-8): > 10 µM (inactive)
- GI50 (PC-3): > 10 µM (inactive)
- GI50 (RPMI-8226): > 10 µM (inactive)
- GI50 (RXF 393): > 10 µM (inactive)
- GI50 (SF-268): > 10 µM (inactive)
- GI50 (SF-295): > 10 µM (inactive)
- GI50 (SF-539): > 10 µM (inactive)
- GI50 (SK-MEL-28): > 10 µM (inactive)
- GI50 (SK-MEL-2): > 10 µM (inactive)
- GI50 (SK-MEL-5): > 10 µM (inactive)
- GI50 (SK-OV-3): > 10 µM (inactive)
- GI50 (SN12C): > 10 µM (inactive)
- GI50 (SNB-19): > 10 µM (inactive)
- GI50 (SNB-75): 5.12 µM (inactive)
- GI50 (SR): > 10 µM (inactive)
- GI50 (SW-620): > 10 µM (inactive)
- GI50 (T47D): > 10 µM (inactive)
- GI50 (TK-10): > 10 µM (inactive)
- GI50 (U-251): > 10 µM (inactive)
- GI50 (UACC-257): > 10 µM (inactive)
- GI50 (UACC-62): > 10 µM (inactive)
- GI50 (UO-31): > 10 µM (inactive)

SMILES: COc1ccc(C2CC(=O)Oc3ccccc3O2)cc1 (stereo not drawn)
- GI50 (786-0): > 100 µM (inactive)
- GI50 (A549): > 100 µM (inactive)
- GI50 (ACHN): > 100 µM (inactive)
- GI50 (BT-549): > 100 µM (inactive)
- GI50 (CCRF-CEM): 52.8 µM (inactive)
- GI50 (COLO 205): > 100 µM (inactive)
- GI50 (DU-145): > 100 µM (inactive)
- GI50 (EKVX): > 100 µM (inactive)
- GI50 (HCC 2998): > 100 µM (inactive)
- GI50 (HCT-116): > 100 µM (inactive)
- GI50 (HCT-15): > 100 µM
- GI50 (HL-60): 42.8 µM (inactive)
- GI50 (HOP-62): > 100 µM (inactive)
- GI50 (HT-29): > 100 µM (inactive)
- GI50 (Hs-578T): 66.7 µM (inactive)
- GI50 (IGROV-1): > 100 µM (inactive)
- GI50 (K562): > 100 µM (inactive)
- GI50 (KM12): > 100 µM (inactive)
- GI50 (MCF7): > 100 µM (inactive)
- GI50 (MDA-MB-231): > 100 µM (inactive)
- GI50 (MDA-MB-435): 70.5 µM (inactive)
- GI50 (MDA-N): 98.2 µM (inactive)
- GI50 (MOLT-4): > 100 µM (inactive)
- GI50 (NCI-H226): > 100 µM (inactive)
- GI50 (NCI-H23): > 100 µM (inactive)
- GI50 (NCI-H460): > 100 µM (inactive)
- GI50 (NCI-H522): 32.1 µM (inactive)
- GI50 (NCI/ADR-RES): > 100 µM (inactive)
- GI50 (OVCAR-3): > 100 µM (inactive)
- GI50 (OVCAR-4): > 100 µM (inactive)
- GI50 (OVCAR-8): > 100 µM (inactive)
- GI50 (PC-3): > 100 µM (inactive)
- GI50 (RPMI-8226): > 100 µM (inactive)
- GI50 (RXF 393): > 100 µM (inactive)
- GI50 (SF-268): > 100 µM (inactive)
- GI50 (SF-295): > 100 µM (inactive)
- GI50 (SF-539): > 100 µM (inactive)
- GI50 (SK-MEL-28): > 100 µM (inactive)
- GI50 (SK-MEL-5): > 100 µM (inactive)
- GI50 (SK-OV-3): > 100 µM (inactive)
- GI50 (SN12C): > 100 µM (inactive)
- GI50 (SNB-19): > 100 µM (inactive)
- GI50 (SNB-75): > 100 µM (inactive)
- GI50 (SR): 52.7 µM (inactive)
- GI50 (SW-620): > 100 µM (inactive)
- GI50 (T47D): > 100 µM (inactive)
- GI50 (TK-10): > 100 µM (inactive)
- GI50 (U-251): > 100 µM (inactive)
- GI50 (UACC-257): > 100 µM (inactive)
- GI50 (UACC-62): > 100 µM (inactive)
- GI50 (UO-31): 88.5 µM (inactive)
